# Test results from PubChem BioAssay (NCI).
#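 Growth conditions: 96-well plates. Treatment: test compound, 48 hours, 5 concentrations. Analysis: linear interpolation between bracketing concentrations; unreached endpoints set to highest concentration. TGI denotes the concentration required for complete inhibition of growth.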
# System: NCI-H460 lung
# Assay: NCI tumour cell line growth inhibition, 48 h
row,SMILES,TGI
1,O=c1c(-c2ccc(Cl)cc2)nnc2n(Cc3ccccc3)c3ccccc3n12,> 100 µM
2,Nc1c(C(=O)c2ccc(Cl)cc2)[nH]c(NCc2ccccc2)c1C(=S)Nc1ccccc1,3.49 µM
3,CCC(C)C(=O)OC1CC2(C)C(c3ccoc3)OC(=O)CC23OC2(C)OC34C(OC(=O)C(C)C)C3(O)C(OC(=O)C5(C)OC5C)C5(C)CC3(O)C(C)(C5CC(=O)OC)C14O2 (centres undefined),> 100 µM
4,c1ccc2c3c(c(N4CCOCC4)nc2c1)CCCC3,> 100 µM
5,O=C(Nc1ccccc1C(=O)NCCCO)/C(=C/c1ccccc1O)NC(=O)c1ccccc1,> 100 µM
6,FC(F)(F)c1ccc2nc3n(c2c1)C(c1c(Cl)cccc1Cl)SC3 (centres undefined),35.6 µM
7,CCC(=O)Oc1c2ccsc2c(OC(=O)CC)c2ccsc12,3.87 µM
8,NC(=O)c1cc2ccccc2o/c1=N/O,> 100 µM
9,COC(=O)C1CC2(c3ccccc3)C(=O)c3ccccc3N2O1 (centres undefined),> 100 µM
10,COc1cc2c(/C=C3/C(=O)Nc4ccccc43)c(Cl)[nH]c2cc1C,15.7 µM
11,O=C(O)C(CO)NC(=O)n1c2ccccc2c2ccccc21 (centres undefined),> 100 µM
12,Brc1ccc2c(-c3csc(-c4c[nH]c5ccc(Br)cc45)n3)c[nH]c2c1,6.89 µM
13,Cc1c2ncccc2cc2oc3ccccc3c(=O)c12,> 100 µM
14,CC1(C)OCC2OC3([C@H]4OC(C)(C)O[C@@H]4CO)OC(C)(C)OC3C2O1 (some centres undefined),> 100 µM
15,O=C(Nc1cccc(O)c1)C(=O)C(C(=O)c1ccccc1F)C1OC(=O)c2ccccc21 (centres undefined),94.9 µM
16,Clc1ccc(OCc2nnc(CCCCCCCCc3nnc(COc4ccc(Cl)cc4)n3Nc3ccccc3)n2Nc2ccccc2)cc1,> 100 µM

# System: NCI-H226 lung
# Assay: NCI tumour cell line growth inhibition, 48 h
row,SMILES,TGI
1,COc1ccc2c(c1)CN1C(=N2)CSC1c1ccccc1Cl (centres undefined),31.3 µM
2,CC1(CNCc2ccccc2)CC(CCc2ccccc2)N(C(=O)c2ccc([N+](=O)[O-])cc2)C1Cc1ccc(O)cc1 (centres undefined),24.1 µM
3,Cc1cc2[nH]c3c(C#N)c4c(c(=O)n3c2cc1C)CCCC4,> 100 µM
4,O=C1CSC(c2cccs2)N1c1nc2cc3sc(N4C(=O)CSC4c4cccs4)nc3cc2s1 (centres undefined),26.8 µM
5,Cc1cn(C(C)OCCN2C(=O)c3ccccc3C2=O)c(=O)[nH]c1=O (centres undefined),> 100 µM
6,CCOC(=O)C1=C(OC(OCC)C(CC)[Se]c2ccccc2)CCCC1 (centres undefined),61.3 µM
7,NC(N)=NS(=O)(=O)c1ccc(NC(=O)c2ccc3nc4ccccc4c(Nc4ccc(S(=O)(=O)N=C(N)N)cc4)c3c2)cc1,> 100 µM
8,COc1ccc2cc(NC(=O)N/N=C\c3ccc(Cl)cc3)ccc2c1,> 100 µM
9,Brc1cc2nn(-c3ccccc3)nc2c2nonc12,> 100 µM
10,CCOC(=O)C(NC(=O)CC(C)C)(N1CCN(c2cc3c(cc2F)c(=O)c(C(=O)O)cn3C2CC2)CC1)C(F)(F)F (centres undefined),46.3 µM
11,Cc1cn([C@@H]2C[C@H]2CO)c(=O)[nH]c1=O,> 100 µM
12,c1ccc(/C(=N/Nc2ccccn2)c2ncccn2)cc1,0.956 µM
13,O=C1C=CC(=O)c2c(O)c(NCCc3ccc(O)cc3)c(Cl)c(O)c21,> 10 µM
14,COc1cc(I)c2c3c1OC1C34CCN(C)C(C2)C4=CC(I)C1(OC)OC (centres undefined),70.5 µM
15,NC(=O)C(=CNC(=S)c1ccncc1)C(N)=O,> 100 µM
16,O=c1c(-c2ccc(Cl)cc2)nnc2n(Cc3ccccc3)c3ccccc3n12,> 100 µM
17,Nc1c(C(=O)c2ccc(Cl)cc2)[nH]c(NCc2ccccc2)c1C(=S)Nc1ccccc1,27.2 µM
18,CCC(C)C(=O)OC1CC2(C)C(c3ccoc3)OC(=O)CC23OC2(C)OC34C(OC(=O)C(C)C)C3(O)C(OC(=O)C5(C)OC5C)C5(C)CC3(O)C(C)(C5CC(=O)OC)C14O2 (centres undefined),> 100 µM
19,c1ccc2c3c(c(N4CCOCC4)nc2c1)CCCC3,68.1 µM
20,O=C(Nc1ccccc1C(=O)NCCCO)/C(=C/c1ccccc1O)NC(=O)c1ccccc1,> 100 µM
21,FC(F)(F)c1ccc2nc3n(c2c1)C(c1c(Cl)cccc1Cl)SC3 (centres undefined),35.4 µM
22,CCC(=O)Oc1c2ccsc2c(OC(=O)CC)c2ccsc12,4.09 µM
23,NC(=O)c1cc2ccccc2o/c1=N/O,> 100 µM
